Read-outs that look alike come from different tables or passages of the source.
Tests used:
GidA [1] = target: T1, GidA (Escherichia coli, UniProt P0A6U3); experiment: Affinity of GidA for FAD and NADH; type: binding
T1 sequence (P0A6U3 1-629): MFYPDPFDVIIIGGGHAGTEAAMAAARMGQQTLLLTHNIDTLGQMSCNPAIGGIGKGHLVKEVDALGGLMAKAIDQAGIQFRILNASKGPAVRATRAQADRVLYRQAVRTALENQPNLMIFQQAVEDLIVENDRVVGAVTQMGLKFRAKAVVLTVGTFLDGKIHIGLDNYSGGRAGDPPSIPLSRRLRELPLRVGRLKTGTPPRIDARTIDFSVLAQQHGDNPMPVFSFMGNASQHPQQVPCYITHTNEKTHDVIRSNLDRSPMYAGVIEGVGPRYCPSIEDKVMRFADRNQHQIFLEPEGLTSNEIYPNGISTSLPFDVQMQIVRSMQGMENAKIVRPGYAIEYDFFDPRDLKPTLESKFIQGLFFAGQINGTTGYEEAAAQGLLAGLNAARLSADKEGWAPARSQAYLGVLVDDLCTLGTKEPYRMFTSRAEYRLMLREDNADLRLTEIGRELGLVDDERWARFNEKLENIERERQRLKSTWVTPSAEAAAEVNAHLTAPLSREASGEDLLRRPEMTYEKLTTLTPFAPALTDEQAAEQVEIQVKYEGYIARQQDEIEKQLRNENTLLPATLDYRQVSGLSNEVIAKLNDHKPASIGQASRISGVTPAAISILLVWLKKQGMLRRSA

GidA [2] = target: T1, GidA; conditions: read-out: Kd (affinity of GidA for NADH); cited from earlier work
TrmFO = conditions: cited from earlier work

With Cc1cc2nc3c(=O)[nH]c(=O)nc-3n(C[C@H](O)[C@H](O)[C@H](O)COP(=O)(O)OP(=O)(O)OC[C@H]3O[C@@H](n4cnc5c(N)ncnc54)[C@H](O)[C@@H]3O)c2cc1C [FAD] the Kd (GidA [1]) was about 3 µM.

In the case of NC(=O)C1=CN([C@@H]2O[C@H](COP(=O)(O)OP(=O)(O)OC[C@H]3O[C@@H](n4cnc5c(N)ncnc54)[C@H](O)[C@@H]3O)[C@@H](O)[C@H]2O)C=CC1 [NADH], the Kd (GidA [2]) is given as about 11 µM.

For (6S) THF, the “concentrations of THF that inhibit the methylene-THF-dependent activity of TrmFO” value (TrmFO) is listed as “higher than 2 µM”.

— publication PMC2790889 (Nucleic Acids Research, 2009)
